# Data taken from patent publication US9133105B2, “Transcription factor modulators” (C & C BIOPHARMA, LLC, priority 2013, dated 2015).
# What was measured:
# [1] = target: MEF2D and HDAC4 protein interactions (Homo sapiens (Human), UniProt Q14814); test: Mammalian two-hybrid assay (GAL4-MEF2D / HDAC4-VP16 luciferase reporter); format: cell-based; settings: for Relative Activity, I / IC50 / Inhibition of MEF2D/HDAC4 interactions (in words): HeLa cells; for Relative Activity, I: test compound 10 μM overnight, ratio X/Y versus DMSO control, expressed in percentile, low = strong inhibition; for IC50: concentration when X/Y equals 50; for Group: class by relative activity I at 10 μM; for Inhibition of MEF2D/HDAC4 interactions (in words): two-hybrid assay
# Sequence of MEF2D and HDAC4 protein interactions (Q14814 whole entry, species assumed, the tested form may be a part): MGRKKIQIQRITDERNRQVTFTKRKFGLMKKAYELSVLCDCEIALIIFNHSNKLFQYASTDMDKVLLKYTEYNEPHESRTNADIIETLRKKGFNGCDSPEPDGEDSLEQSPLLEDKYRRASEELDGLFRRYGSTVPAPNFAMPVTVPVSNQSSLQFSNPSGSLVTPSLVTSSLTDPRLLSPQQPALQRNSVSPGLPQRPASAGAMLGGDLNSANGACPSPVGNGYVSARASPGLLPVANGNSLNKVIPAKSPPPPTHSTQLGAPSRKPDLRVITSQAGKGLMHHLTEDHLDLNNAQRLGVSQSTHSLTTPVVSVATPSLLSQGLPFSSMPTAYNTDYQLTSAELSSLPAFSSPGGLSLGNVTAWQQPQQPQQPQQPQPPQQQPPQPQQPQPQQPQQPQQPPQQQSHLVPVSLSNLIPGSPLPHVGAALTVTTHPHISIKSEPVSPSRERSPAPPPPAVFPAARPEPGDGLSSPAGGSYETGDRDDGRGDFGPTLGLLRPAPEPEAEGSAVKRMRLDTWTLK
# Description: Detection of MEF2D and HDAC4 interactions. In this mammalian two-hybrid assay, HDAC4 and MEF2D proteins were used as representative members of their respective protein families because the protein-protein interactions involved in the recruitment of class IIa HDACs by MEF2 were highly conserved. Two separate DNA constructs were made with MEF2D fused with the GAL4 DNA binding domain (GAL4-MEF2D) and with the MEF2-binding motif of HDAC4 (AA 155-220) fused with the viral transactivator VP-16 (HDAC4-VP16) (FIG. 1). Human epithelial carcinoma cells (HeLa) were co-transfected with the two DNA constructs (GAL4-MEF2D and HDAC4-VP16) and a reporter plasmid (Gal4Luc). […] MEF2D and HDAC4 protein interactions were detected as a result of the GAL4-MEF2D and HDAC4-VP16 protein complex binding a DNA promoter on the reporter plasmid (Gal4Luc) and driving cellular expression of a luciferase gene (FIG. 1). The measured luciferase protein signal was proportional to the amount of MEF2D and HDAC4 protein interactions occurring with the cell.
# The relatively stronger signal from the GAL4VP16 positive control construct was probably due to the fact that the activation domain of VP16 was covalently linked to GAL4, whereas in the mammalian two-hybrid assay it was recruited by protein-protein interactions between HDAC4 and MEF2 (FIG. 2). This assay permitted the detection of the interactions between HDAC4 and MEF2D with minimal interference from endogenous factors. The HDAC4 fragment lacked the catalytic domain so that the deacetylase activity was excluded from the assay.
# Detection of inhibition of MEF2D and HDAC4 interactions. Next, the assay was used to test whether the compounds could disrupt the interactions between MEF2D and HDAC4. After co-expressing the GAL4-MEF2D and HDAC4-VP16 DNA constructs and reporter plasmid, the HeLa cells were treated with a test compound (10 μM) overnight. Cells transfected with the positive control GAL4VP16 fusion construct and reporter plasmid were also treated with the test compound (10 μM) overnight. As another control, DMSO was added (but kept below 0.2% V/V) to cells transfected with the positive GAL4VP16 fusion construct or the GAL4-MEF2D and HDAC4-VP16 DNA constructs. A luciferase assay was performed as described above according to the manufacturer's protocol (Promega). The luciferase response was normalized against the Renilla Luciferase as an internal control.
# The relative activity and IC50 calculations. […] The relative activity, I, was the ratio of former to later, i.e. X/Y, expressed in percentile. […] The IC50 was the concentration of the compounds when X/Y equals 50.
# Nalm-6 leukemia cells = test: Inhibition of Nalm-6 leukemia cell growth (CellTiter-Glo); format: cell-based; settings: 72 hours treatment; for IC50: Homo sapiens, NALM-6
# Description: Treatment of cells. Nalm-6 leukemia cells were grown to the logarithmic growth phase and seeded into 24-well plates. Plated cells were incubated at 37° C. in a 5% CO2 humidified incubator for 24 hours and treated with various concentrations of compounds. Treated cells were further incubated for 72 hours and then were examined for cell proliferation. Cell proliferation was determined using the CellTiter-Glo Luminescence Cell Viability assay (Promega Corporation, Madison, Wis.) according to the manufacturer's protocol. The calculated inhibition rate was determined with the following formula: Inhibition rate (%)=(1−Luminescence of experimental group/Luminescence of control group)×100. The 1050 was the calculated concentration of a compound needed to inhibit half of the maximum cell growth (equivalent to cell growth in control group) based on the corresponding dose-response curve under the described experimental conditions.
"Relative Activity, I [1]",IC50 [1],Group [1],IC50 (Nalm-6 leukemia cells),Inhibition of MEF2D/HDAC4 interactions (in words) [1],SMILES,Nalm-6 leukemia cell growth inhibition (in words) (Nalm-6 leukemia cells)
5.7,110 nM,A (A (I < 22 included)),1360 nM,–,"Nc1ccccc1NC(=O)CCCCCC(=O)Nc1cncc(Br)c1 [CC7, N^1-(2-aminophenyl)-N^7-(5-bromopyridin-3-yl)heptanediamide]",–
5.4,100 nM,A (A (I < 22 included)),2610 nM,–,"Nc1ccccc1NC(=O)CCCCCC(=O)Nc1ccc(O)cc1 [CC3, N^1-(2-aminophenyl)-N^7-(4-hydroxyphenyl)heptanediamide]",–
79.5,–,C (C (50 < I < 100 included)),> 10000 nM,mild inhibitory effect,"Nc1ccncc1NC(=O)CCCCCC(=O)Nc1cccc(Br)c1 [CC4, N^1-(4-aminopyridin-3-yl)-N^7-(3-bromophenyl)heptanediamide]",mild inhibitory effect
4.7,90 nM,A (A (I < 22 included)),1460 nM,–,"Nc1ccccc1NC(=O)CCCCCC(=O)Nc1cccc(O)c1 [CC2, N^1-(2-aminophenyl)-N^7-(3-hydroxyphenyl)heptanediamide]",–
62.6,–,C (C (50 < I < 100 included)),2050 nM,weaker inhibition,"Nc1ccccc1NC(=O)CCCCCC(=O)Nc1ccccc1Br [CC6, N^1-(2-aminophenyl)-N^7-(2-bromophenyl)heptanediamide]",strong growth inhibition

SMILES,"Relative Activity, I [1]",IC50 [1],Group [1],IC50 (Nalm-6 leukemia cells),Inhibition of MEF2D/HDAC4 interactions (in words) [1],Nalm-6 leukemia cell growth inhibition (in words) (Nalm-6 leukemia cells)
"Nc1ccccc1NC(=O)CCCCCNC(=O)c1ccc(Br)cc1 [CC5, N-(6-((2-aminophenyl)amino)-6-oxohexyl)-4-bromobenzamide]",3.6,70 nM,A (A (I < 22 included)),1380 nM,–,–
"Nc1ccccc1NC(=O)CCCCCC(=O)NCc1cccnc1 [CC1, N^1-(2-aminophenyl)-N^7-(pyridin-3-ylmethyl)heptanediamide]",79.2,–,C (C (50 < I < 100 included)),> 10000 nM,mild inhibitory effect,mild inhibitory effect
